From PubChem BioAssay (NCI)
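Following 48 hours of exposure in 96-well plates, responses at five concentrations were used to interpolate endpoints linearly. At the GI50, growth is halved. TGI marks complete inhibition of growth.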

How the values were obtained:
Test in all cases: inhibition of tumour cell growth, NCI panel, 48 h
[1] = tested on: A498 renal
[2] = tested on: OVCAR-3 ovarian
[3] = tested on: MDA-MB-231 breast
[4] = tested on: SF-295 CNS
[5] = tested on: CCRF-CEM leukemia
[6] = tested on: HS 578T breast
[7] = tested on: IGROV1 ovarian
[8] = tested on: SF-268 CNS
[9] = tested on: NCI-H522 lung
[10] = tested on: LOX IMVI melanoma

| Structure (SMILES) | GI50 [1] [µM] | TGI [1] [µM] | GI50 [2] [µM] | TGI [2] [µM] | GI50 [3] [µM] | TGI [3] [µM] | GI50 [4] [µM] | TGI [4] [µM] | GI50 [5] [µM] | TGI [5] [µM] | GI50 [6] [µM] | TGI [6] [µM] | GI50 [7] [µM] | TGI [7] [µM] | GI50 [8] [µM] | TGI [8] [µM] | GI50 [9] [µM] | TGI [9] [µM] | GI50 [10] [µM] | TGI [10] [µM] |
| --- | --- | --- | --- | --- | --- | --- | --- | --- | --- | --- | --- | --- | --- | --- | --- | --- | --- | --- | --- | --- |
| C[C@@H]1O[C@@H](O[C@H]2C[C@@H](O)[C@]3(CO)C4C(CC[C@]3(O)C2)[C@@]2(O)CC[C@H](C3=CC(=O)OC3)[C@@]2(C)C[C@H]4O)[C@H](O)[C@H](O)[C@H]1O (some centres not stated) | 0.0387 | 0.262 | 0.0168 | 0.0487 | 0.111 | 0.286 | 0.0196 | 0.098 | 0.0168 | 0.0808 | 0.0182 | 4.32 | 0.0273 | 0.23 | 0.0189 | 0.0642 | 0.0117 | 0.0323 | 0.0233 | 0.0882 |
| COc1cc2c(-c3nc4cc(Cl)c(F)cc4s3)cc(=O)oc2c(C)c1OC | 1.5 | 2.87 | – | – | – | – | 1.01 | 2.34 | – | – | – | – | 0.207 | 0.662 | 1.14 | 3.24 | 0.176 | 0.354 | – | – |
| CCc1nc2c(O)ccc(O)c2nc1C | – | 35.2 | – | 28.5 | – | – | – | 34.2 | – | > 22.3 | – | – | – | 33.1 | – | 34.2 | – | 6.47 | – | 29.9 |
| O=C1Nc2ccc(F)c3c(OCCO)cc(-c4ccc[nH]4)c1c23 | 0.896 | 4.24 | 3.59 | 9.7 | 2.03 | 9.53 | 2.43 | 18.9 | 0.99 | 11.1 | 1.06 | 10.2 | 1.86 | 10.4 | 2.66 | 6.87 | 2.12 | 11.6 | 1.19 | 5.38 |
| C[C@]12CC[C@H](O)CC1=CC[C@@H]1[C@@H]2CC[C@]2(C)C(=O)/C(=C/c3cccc(OCCCn4ccnc4)c3)C[C@@H]12 | 20.5 | 39.1 | 28.8 | > 100 | 20.6 | 40.4 | 31.7 | > 100 | 16.4 | > 100 | 21.5 | 54.2 | 19.4 | 46.2 | 21.4 | 55.6 | 16.6 | 34.2 | 23.1 | 56.2 |
| COCCNCC(O)Cn1c2ccc(Cl)cc2c2cc(Cl)ccc21 (configuration not stated) | 1.73 | 5.32 | 1.95 | 3.66 | 1.67 | 3.4 | 1.93 | 4.28 | 1.92 | 4.25 | 1.99 | 5.51 | – | – | 1.79 | 3.48 | 2.03 | 3.89 | – | – |
| CCOC(C)OCC#CCCBr (configuration not stated) | – | – | – | > 100 | – | – | – | > 100 | – | > 100 | – | – | – | > 100 | – | > 100 | – | – | – | > 100 |
| O=C1CCC2(c3ccc(F)cc3)Nc3ccccc3N12 (configuration not stated) | – | > 100 | – | > 100 | – | – | – | > 100 | – | > 100 | – | – | – | > 100 | – | > 100 | – | > 100 | – | > 100 |
| COc1ccc(/C=C2/CN(C(=O)c3ccccc3F)C/C(=C\c3ccc(OC)cc3)C2=O)cc1 | 13.5 | 27.1 | 2.3 | 4.95 | 2.88 | 9.04 | – | – | 2.76 | > 100 | 2.54 | 8.31 | 3.43 | 11.3 | 4.28 | 18.9 | 4.2 | 15 | 1.66 | 3.24 |
| O=[N+]([O-])c1ccccc1S(=O)c1ccccc1 (configuration not stated) | – | > 100 | – | > 100 | – | – | – | > 100 | – | > 100 | – | – | – | > 100 | – | > 100 | – | > 100 | – | > 100 |
| N#C/C(=C\c1ccc(CP(=O)(O)O)cc1)C(N)=O | – | > 100 | – | > 100 | – | – | – | > 100 | – | > 100 | – | – | – | > 100 | – | > 100 | – | > 100 | – | > 100 |
| C=C1C(=O)O[C@@H]2C[C@]3(C)[C@@H](C[C@H]12)[C@](C)(O)CC[C@@H]3O | – | – | – | > 100 | – | – | – | > 100 | – | > 100 | – | – | – | > 100 | – | > 100 | – | > 100 | – | > 100 |
| O=C(NO)c1ccc(C(=O)NO)cc1 | – | > 100 | – | > 100 | – | > 100 | – | > 100 | – | 83.1 | – | > 100 | – | > 100 | – | > 100 | – | – | – | > 100 |
| O=CC1=CCCC2(C1)OCCO2 | – | > 100 | – | > 100 | – | – | – | > 100 | – | > 100 | – | – | – | > 100 | – | > 100 | – | > 100 | – | > 100 |
| Cc1c(/C=C2\CC/C(=C\c3[nH]c(C(=O)OC(C)(C)C)c(C)c3C)C2=O)[nH]c(C(=O)OC(C)(C)C)c1C | – | > 100 | – | > 100 | – | – | – | > 100 | – | > 100 | – | – | – | > 100 | – | > 100 | – | > 100 | – | > 100 |
| CC(=O)O[C@]1(C(C)=O)CC[C@H]2[C@@H]3C[C@H](C)C4=CC(=O)C=C[C@]4(C)[C@@]3(F)[C@@H](O)C[C@@]21C | – | – | – | > 100 | – | – | – | > 100 | – | > 100 | – | – | – | > 100 | – | > 100 | – | > 100 | – | > 100 |
| OCC(O)CC[CH2][Sn]([c]1ccccc1)([c]1ccccc1)[c]1ccccc1 (configuration not stated) | – | – | 16.2 | 29.8 | – | – | 11.3 | 23.3 | 13.7 | 41.6 | – | – | 16.3 | 33.7 | – | – | 4.64 | 13.7 | 14.9 | 30.7 |
| COc1cc2c(cc1OC)C1c3ccccc3C(C#N)(C2)N(C(=O)c2ccccc2)C1O (configuration not stated) | – | – | – | > 100 | – | – | – | > 100 | – | > 100 | – | – | – | > 100 | – | > 100 | – | 56.4 | – | > 100 |
| O=c1/c(=C/c2cccc3ccccc23)sc2nc3ccccc3n12 | – | > 100 | – | > 100 | – | – | – | > 100 | – | – | – | – | – | > 100 | – | > 100 | – | > 100 | – | > 100 |
